This assay has as its target T1, Stp1/Stp4/Stp3 subcomplex (Mycosarcoma maydis, UniProt A0A0D1C5E3+A0A0D1CU07+A0A0D1EAN2).
T1 sequence (A0A0D1CU07 29-515): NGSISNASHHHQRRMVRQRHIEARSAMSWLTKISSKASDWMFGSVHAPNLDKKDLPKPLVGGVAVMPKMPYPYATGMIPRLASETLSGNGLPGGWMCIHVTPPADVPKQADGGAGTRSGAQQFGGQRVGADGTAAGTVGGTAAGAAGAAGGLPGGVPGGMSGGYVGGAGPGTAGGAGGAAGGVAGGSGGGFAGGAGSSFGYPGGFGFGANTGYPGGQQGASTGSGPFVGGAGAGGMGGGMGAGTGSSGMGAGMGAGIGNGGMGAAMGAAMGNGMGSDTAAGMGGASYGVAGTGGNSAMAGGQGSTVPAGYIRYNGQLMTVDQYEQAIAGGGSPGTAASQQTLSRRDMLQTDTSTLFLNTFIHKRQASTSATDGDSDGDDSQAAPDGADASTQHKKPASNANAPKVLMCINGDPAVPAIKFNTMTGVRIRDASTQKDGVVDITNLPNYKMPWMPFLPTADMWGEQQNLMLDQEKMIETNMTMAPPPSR
T1 sequence (A0A0D1C5E3 24-129): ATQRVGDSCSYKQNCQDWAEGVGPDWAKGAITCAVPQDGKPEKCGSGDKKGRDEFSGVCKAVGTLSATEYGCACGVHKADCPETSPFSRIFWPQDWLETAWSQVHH
T1 sequence (A0A0D1EAN2 25-327): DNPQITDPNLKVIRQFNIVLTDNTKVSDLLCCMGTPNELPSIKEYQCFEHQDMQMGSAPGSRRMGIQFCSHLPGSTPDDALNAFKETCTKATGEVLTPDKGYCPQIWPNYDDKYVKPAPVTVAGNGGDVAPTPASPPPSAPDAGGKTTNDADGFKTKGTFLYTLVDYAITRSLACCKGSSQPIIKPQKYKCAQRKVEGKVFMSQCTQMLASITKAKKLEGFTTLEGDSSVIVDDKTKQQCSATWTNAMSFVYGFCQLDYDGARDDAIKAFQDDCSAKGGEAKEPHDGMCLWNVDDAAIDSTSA
The assay is described as follows: Alamar Blue viability assay in S. cerevisiae 2-hybrid strain NL73 (viability depends on Stp complex formation). The format is cell-based, U. maydis. The text has this: To develop a screening platform based on Stp complex formation, a Saccharomyces cerevisiae 2-hybrid system was used. […] After co-transformation, reporter gene transcription is activated only if the two fusion proteins interact in the yeast nucleus. Moreover, the S. cerevisiae strain AH109 harbours the reporter genes ADE2 and HIS3, which encode for two enzymes that are crucial for adenine (Ade) and histidine (His) biosynthesis and thereby enable nutritional selection as a read-out for the interaction between proteins. In the following experiments, growth on high-stringency synthetic defined (SD) medium (SD -Leu -Trp -Ade -His) was used to identify if the complex members interact between them causing expression of ADE2 and HIS3. Additionally, strains were also grown on low-stringency medium (SD -Leu -Trp) to confirm their viability. […] All experiments were done with three independent transformants to exclude false positives due to spontaneous mutations.
The S. cerevisiae strain AH109 from Clontech (Saint-Germain-en-Laye, France) is auxotrophic for tryptophan, leucine, adenine and histidine. In addition, lacz is under control of the MEL1 UAS to be used as readout for quantitative β-galactosidase assays.
The resulting test strain NL73 (AD-Stp4/BD-Stp1/myc-Stp3) expresses the Stp1/Stp4/Stp3 subcomplex. NL73 carries the following three plasmids: pGBKT7-stp1: pGBKT7 vector expressing proteins fused to the GAL4 DNA binding domain (DNA-BD). pGBKT7 also contains the T7 promoter, a c-Myc epitope tag, and a MCS. The vector carries a Kanamycin resistance gene (Kanr) for selection in E. coli and the TRP1 nutritional marker for selection in yeast. pGAD-stp4: pGADT7 vector expressing proteins fused to a GAL4 activation domain (AD). The GAL4 AD fusion contains an N-terminal nuclear localization signal that targets the protein to the yeast nucleus, and a HA Tag, located between the GAL4 AD and the protein of interest. The vector carries an ampicillin resistance gene (Ampr) for selection in E. coli and a LEU2 nutritional marker for selection in yeast. pYEA-stp3-myc: pYEA vector expressing proteins under the control of the phosphoglycerate kinase promoter. The vector carries an ampicillin resistance gene (Ampr) for selection in E. coli and an ADE2 nutritional marker for selection in yeast. As control strain, NL70 containing empty vectors was generated (AH109Δabc9 pGAD::LEU2 pGBK::TRP1 pYEA::ADE2).
After that, 25 µl of NL73 cell suspension were dispensed into the assay plates using Multidrop Combi (Thermofisher Scientific) giving a final screening concentration of 10 µM. One column of the assay plate was filled with 25 µl of NL70 control strain cell suspension as negative control. Plates were sealed with Breathe-Easy sealing membrane (Sigma, Z380059), lidded and incubated in a humid chamber over night at 30°C and 140 rpm in an HT Multitron Pro (Infors). […] For the viability assay, the alamar Blue HS Cell Viability reagent (Invitrogen, #A50101) was pre-diluted using an equal amount of dVE-H2O and 5 µl of diluted Alamar Blue were added to the screening plates using Multidrop Combi. The plates were sealed again and incubated for 4 h at room temperature, unlidded. […] Screening data was normalized to DMSO-treated NL73 cells (that received DMSO in the same concentration as in samples where compounds dissolved in DMSO were added) being 100% and DMSO-treated NL70 cells representing 0% viability and analyzed with Quattro Software Suite (Quattro Research GmbH).
A general note: Resazurin is reduced to fluorescent resorufin, in cell work by metabolically active cells.

[1] abbreviates: inhibitory activity on NL73 viability, Table 6, read-out: IC50.
Setting [2] is: Alamar Blue assay, Table 8, read-out: IC50.

Read-outs that look alike come from different tables or passages of the source.

As a reminder, the IC50 is the concentration that inhibits the measured activity by half. Consider `CCCn1c2c(c(SCc3ccccc3F)nc1=O)CCC2` [Compound 3-C], for which the IC50 under setting [1] came out at 6.4 µM. Consider `O=S(=O)(Nc1cnc2c(cnn2C2CCCCC2)c1)c1cc(F)ccc1F` [Compound 3-B], for which the IC50 under setting [2] came out at 2.2 µM. Take `CCn1c2c(c(SCc3cccc(C)c3)nc1=O)CCC2` [Compound 2-C]: under setting [1], the IC50 worked out at 6.2 µM. With `CC(C)n1ncc2cc(NS(C)(=O)=O)cnc21` [Ref1-B, reference compound], the 50% inhibitory concentration (IC50) result (Alamar Blue assay, Table 8) is “inactive”.

On to `O=S(=O)(Nc1cnc2[nH]ncc2c1)c1cc(F)ccc1F` [Ref2-B, reference compound], for which, where the note is “Alamar Blue assay, Table 8”, the IC50 result is “inactive”. In the case of `Cn1ncc2cc(NS(=O)(=O)c3cc(F)ccc3F)cnc21` [Compound 4-B], the IC50 under setting [2] is 10.2 µM.

The values are drawn from patent publication EP4039094A1, “NOVEL ANTIFUNGAL COMPOUNDS” (Max-Planck-Gesellschaft zur Förderung der Wissenschaften …, priority 2021, dated 2022).
